# According to ChEMBL document CHEMBL5055685, “Discovery of the First Potent IDO1/IDO2 Dual Inhibitors: A Promising Strategy for Cancer Immunotherapy” (J Med Chem, 2021):
# Calls of active or inactive are those of the source. The rule behind the calls is not given here.
# Assays:
# [1] = target: Mitogen-activated protein kinase kinase kinase 9 (Homo sapiens) (UniProt P80192); assay: Inhibition of MLK1 (unknown origin) at 1 uM
# [2] = target: Serine/threonine-protein kinase 38-like (Homo sapiens) (UniProt Q9Y2H1); assay: Inhibition of STK38L (unknown origin) at 1 uM
# [3] = Protein binding in Sprague-Dawley rat plasma assessed as fraction unbound by equilibrium dialysis; type: ADME, cell-free
# [4] = target: Dual specificity testis-specific protein kinase 1 (Homo sapiens) (UniProt Q15569); assay: Inhibition of TESK1 (unknown origin) at 1 uM
# [5] = target: Tyrosine-protein kinase ITK/TSK (Homo sapiens) (UniProt Q08881); assay: Inhibition of ITK (unknown origin) at 1 uM
# [6] = target: Epidermal growth factor receptor (Homo sapiens) (UniProt P00533); assay: Inhibition of EGFR (unknown origin) at 1 uM
# [7] = target: Tyrosine-protein kinase FRK (Homo sapiens) (UniProt P42685); assay: Inhibition of FRK (unknown origin) at 1 uM
# [8] = target: Serine/threonine-protein kinase TAO2 (Homo sapiens) (UniProt Q9UL54); assay: Inhibition of TAOK2 (unknown origin) at 1 uM
# [9] = target: Cytoplasmic tyrosine-protein kinase BMX (Homo sapiens) (UniProt P51813); assay: Inhibition of BMX (unknown origin) at 1 uM
# [10] = target: Platelet-derived growth factor receptor beta (Homo sapiens) (UniProt P09619); assay: Inhibition of PDGFRbeta (unknown origin) at 1 uM
# [11] = target: Inhibitor of nuclear factor kappa-B kinase subunit alpha (Homo sapiens) (UniProt O15111); assay: Inhibition of IKKalpha (unknown origin) at 1 uM
# [12] = target: MAP kinase-activated protein kinase 2 (Homo sapiens) (UniProt P49137); assay: Inhibition of MAPKAPK2 (unknown origin) at 1 uM
# [13] = target: Tyrosine-protein kinase Fgr (Homo sapiens) (UniProt P09769); assay: Inhibition of FGR (unknown origin) at 1 uM
# [14] = Clearance in Sprague-Dawley rat at 5 mg/kg, iv; type: ADME, organism-based; settings: in vivo
# [15] = target: cAMP-dependent protein kinase catalytic subunit gamma (Homo sapiens) (UniProt P22612); assay: Inhibition of PKAcg (unknown origin) at 1 uM
# [16] = target: Mitogen-activated protein kinase 7 (Homo sapiens) (UniProt Q13164); assay: Inhibition of ERK5 (unknown origin) at 1 uM
# [17] = Protein binding in monkey plasma by equilibrium dialysis by equilibrium dialysis; type: ADME, cell-free, Macaca mulatta; settings: rhesus monkey, read-out: PPB (converted)
# [18] = target: Serine/threonine-protein kinase haspin (Homo sapiens) (UniProt Q8TF76); assay: Inhibition of haspin (unknown origin) at 1 uM
# [19] = target: Serine/threonine-protein kinase Nek1 (Homo sapiens) (UniProt Q96PY6); assay: Inhibition of NEK1 (unknown origin) at 1 uM
# [20] = test system: HCT-116; assay: Antitumor immunity in BALB/c mouse xenografted with human HCT-116 cells assessed as late Treg cells in tumor-draining lymph nodes by propidium iodide staining based flow cytometry analysis (reference value: 18.3 %); type: functional
# [21] = target: Tyrosine-protein kinase Tec (Homo sapiens) (UniProt P42680); assay: Inhibition of TEC (unknown origin) at 1 uM
# [22] = target: Serine/threonine-protein kinase WNK2 (Homo sapiens) (UniProt Q9Y3S1); assay: Inhibition of WNK2 (unknown origin) at 1 uM
# [23] = Protein binding in ICR mouse plasma by equilibrium dialysis; type: ADME, cell-free; settings: read-out: PPB (converted)
# [24] = Protein binding in Beagle dog plasma assessed as fraction unbound by equilibrium dialysis; type: ADME, cell-free, Canis lupus familiaris
# [25] = target: Serine/threonine-protein kinase WNK3 (Homo sapiens) (UniProt Q9BYP7); assay: Inhibition of WNK3 (unknown origin) at 1 uM
# [26] = target: Tyrosine-protein kinase receptor UFO (Homo sapiens) (UniProt P30530); assay: Inhibition of AXL (unknown origin) at 1 uM
# [27] = target: Mitogen-activated protein kinase 10 (Homo sapiens) (UniProt P53779); assay: Inhibition of JNK3 (unknown origin) at 1 uM
# [28] = target: Calcium/calmodulin-dependent protein kinase type II subunit alpha (Homo sapiens) (UniProt Q9UQM7); assay: Inhibition of CAMK2A (unknown origin) at 1 uM
# [29] = target: Tyrosine-protein kinase TXK (Homo sapiens) (UniProt P42681); assay: Inhibition of TXK (unknown origin) at 1 uM
# [30] = target: Dual specificity testis-specific protein kinase 2 (Homo sapiens) (UniProt Q96S53); assay: Inhibition of TESK2 (unknown origin) at 1 uM
# [31] = target: Serine/threonine-protein kinase ULK2 (Homo sapiens) (UniProt Q8IYT8); assay: Inhibition of ULK2 (unknown origin) at 1 uM
# [32] = target: SRSF protein kinase 3 (Homo sapiens) (UniProt Q9UPE1); assay: Inhibition of MSSK1 (unknown origin) at 1 uM
# [33] = target: Serine/threonine-protein kinase tousled-like 2 (Homo sapiens) (UniProt Q86UE8); assay: Inhibition of TLK2 (unknown origin) at 1 uM
# [34] = target: Calcium/calmodulin-dependent protein kinase kinase 2 (Homo sapiens) (UniProt Q96RR4); assay: Inhibition of CAMKK2 (unknown origin) at 1 uM
# [35] = target: Serine/threonine-protein kinase 33 (Homo sapiens) (UniProt Q9BYT3); assay: Inhibition of STK33 (unknown origin) at 1 uM
# [36] = target: Protein kinase C alpha type (Homo sapiens) (UniProt P17252); assay: Inhibition of PKCalpha (unknown origin)at 1 uM
# [37] = target: Tyrosine-protein kinase Lyn (Homo sapiens) (UniProt P07948); assay: Inhibition of LYN-B (unknown origin) at 1 uM
# [38] = target: Tyrosine-protein kinase Lck (Homo sapiens) (UniProt P06239); assay: Inhibition of LCK (unknown origin) at 1 uM
# [39] = target: Cyclin-dependent kinase 2/cyclin E1 (Homo sapiens) (UniProt P24864+P24941); assay: Inhibition of CDK2/cyclin-E (unknown origin) at 1 uM; type: protein-complex assay
# [40] = target: Casein kinase II subunit alpha' (Homo sapiens) (UniProt P19784); assay: Inhibition of CK2A2 (unknown origin) at 1 uM
# [41] = target: Dual specificity mitogen-activated protein kinase kinase 6 (Homo sapiens) (UniProt P52564); assay: Inhibition of MKK6 (unknown origin) at 1 uM
# [42] = target: Mitogen-activated protein kinase kinase kinase 1 (Homo sapiens) (UniProt Q13233); assay: Inhibition of MEKK1 (unknown origin) at 1 uM
# [43] = test system: Mus musculus; assay: Toxicity in BALB/c mouse implanted with mouse CT26 cells assessed as adverse effect at 50 mg/kg, ip bid for 28 days; type: organism-based; settings: in vivo, 672 h, time 28 day
# [44] = target: Mitogen-activated protein kinase kinase kinase 7 (Homo sapiens) (UniProt O43318); assay: Inhibition of TAK1 (unknown origin) at 1 uM
# [45] = target: Ephrin type-B receptor 2 (Homo sapiens) (UniProt P29323); assay: Inhibition of EPHB2 (unknown origin) at 1 uM
# Sequence of Serine/threonine-protein kinase tousled-like 2 (Homo sapiens) (Q86UE8 whole entry, looked up): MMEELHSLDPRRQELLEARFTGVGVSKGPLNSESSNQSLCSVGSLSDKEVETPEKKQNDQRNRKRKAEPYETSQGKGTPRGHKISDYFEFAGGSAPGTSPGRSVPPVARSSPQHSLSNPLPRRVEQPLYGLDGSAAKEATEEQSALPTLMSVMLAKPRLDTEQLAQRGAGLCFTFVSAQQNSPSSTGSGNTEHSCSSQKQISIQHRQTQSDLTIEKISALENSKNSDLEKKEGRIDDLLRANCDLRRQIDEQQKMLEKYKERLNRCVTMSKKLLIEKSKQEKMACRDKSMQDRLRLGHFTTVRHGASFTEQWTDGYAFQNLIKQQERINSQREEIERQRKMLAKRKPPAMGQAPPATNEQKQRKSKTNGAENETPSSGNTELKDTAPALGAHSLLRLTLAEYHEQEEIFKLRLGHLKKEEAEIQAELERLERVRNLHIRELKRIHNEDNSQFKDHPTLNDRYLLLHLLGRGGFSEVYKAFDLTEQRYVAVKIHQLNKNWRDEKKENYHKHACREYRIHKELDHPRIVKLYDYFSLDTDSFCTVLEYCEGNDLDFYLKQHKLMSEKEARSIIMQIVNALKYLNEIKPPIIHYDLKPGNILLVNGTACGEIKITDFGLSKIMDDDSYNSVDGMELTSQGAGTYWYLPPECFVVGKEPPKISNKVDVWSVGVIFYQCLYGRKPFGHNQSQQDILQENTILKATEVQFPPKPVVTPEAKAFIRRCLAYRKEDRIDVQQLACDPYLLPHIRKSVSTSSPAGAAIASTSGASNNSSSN
# Sequence of Calcium/calmodulin-dependent protein kinase type II subunit alpha (Homo sapiens) (Q9UQM7 whole entry): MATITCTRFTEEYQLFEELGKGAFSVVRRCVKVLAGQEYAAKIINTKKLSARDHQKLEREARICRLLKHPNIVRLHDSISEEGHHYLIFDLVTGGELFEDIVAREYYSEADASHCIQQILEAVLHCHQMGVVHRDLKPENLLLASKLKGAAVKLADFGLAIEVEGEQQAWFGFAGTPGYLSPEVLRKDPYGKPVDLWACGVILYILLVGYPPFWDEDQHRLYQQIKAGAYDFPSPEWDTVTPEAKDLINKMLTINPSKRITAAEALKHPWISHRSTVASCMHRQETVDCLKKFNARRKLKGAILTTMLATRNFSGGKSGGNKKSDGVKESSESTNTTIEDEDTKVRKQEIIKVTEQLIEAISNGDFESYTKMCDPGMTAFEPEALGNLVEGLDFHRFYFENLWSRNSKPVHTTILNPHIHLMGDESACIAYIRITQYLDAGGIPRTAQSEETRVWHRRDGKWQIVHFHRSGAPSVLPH
# Sequence of SRSF protein kinase 3 (Homo sapiens) (Q9UPE1 whole entry): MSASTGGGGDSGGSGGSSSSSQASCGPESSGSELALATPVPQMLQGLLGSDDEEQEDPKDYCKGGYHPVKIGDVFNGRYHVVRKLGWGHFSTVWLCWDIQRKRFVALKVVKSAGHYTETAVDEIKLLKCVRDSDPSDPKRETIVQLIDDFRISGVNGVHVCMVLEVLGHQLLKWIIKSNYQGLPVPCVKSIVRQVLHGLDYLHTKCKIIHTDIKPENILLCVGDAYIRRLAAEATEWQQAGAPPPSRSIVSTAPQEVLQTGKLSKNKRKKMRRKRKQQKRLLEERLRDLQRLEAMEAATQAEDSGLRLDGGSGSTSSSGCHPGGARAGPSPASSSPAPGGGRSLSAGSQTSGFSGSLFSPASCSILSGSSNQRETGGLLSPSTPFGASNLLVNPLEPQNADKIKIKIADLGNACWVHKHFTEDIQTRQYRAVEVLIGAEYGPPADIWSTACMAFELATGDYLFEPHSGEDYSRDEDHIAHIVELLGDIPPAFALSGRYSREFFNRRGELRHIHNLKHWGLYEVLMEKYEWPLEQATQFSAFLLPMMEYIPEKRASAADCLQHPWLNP
# Sequence of Tyrosine-protein kinase FRK (Homo sapiens) (P42685 whole entry): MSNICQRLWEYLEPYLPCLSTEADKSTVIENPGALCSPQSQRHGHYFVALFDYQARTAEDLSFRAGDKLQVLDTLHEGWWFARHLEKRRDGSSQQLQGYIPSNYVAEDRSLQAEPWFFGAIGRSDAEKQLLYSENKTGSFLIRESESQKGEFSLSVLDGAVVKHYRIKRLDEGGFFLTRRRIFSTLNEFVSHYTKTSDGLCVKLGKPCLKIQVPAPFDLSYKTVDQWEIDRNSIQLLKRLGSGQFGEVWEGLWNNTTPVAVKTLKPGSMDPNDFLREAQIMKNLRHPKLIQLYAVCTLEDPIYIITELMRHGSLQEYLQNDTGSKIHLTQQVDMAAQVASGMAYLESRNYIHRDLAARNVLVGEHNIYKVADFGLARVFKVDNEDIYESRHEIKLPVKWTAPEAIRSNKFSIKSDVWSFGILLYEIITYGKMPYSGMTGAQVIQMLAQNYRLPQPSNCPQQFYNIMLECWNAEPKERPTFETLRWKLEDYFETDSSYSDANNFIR
# Sequence of Dual specificity mitogen-activated protein kinase kinase 6 (Homo sapiens) (P52564 whole entry): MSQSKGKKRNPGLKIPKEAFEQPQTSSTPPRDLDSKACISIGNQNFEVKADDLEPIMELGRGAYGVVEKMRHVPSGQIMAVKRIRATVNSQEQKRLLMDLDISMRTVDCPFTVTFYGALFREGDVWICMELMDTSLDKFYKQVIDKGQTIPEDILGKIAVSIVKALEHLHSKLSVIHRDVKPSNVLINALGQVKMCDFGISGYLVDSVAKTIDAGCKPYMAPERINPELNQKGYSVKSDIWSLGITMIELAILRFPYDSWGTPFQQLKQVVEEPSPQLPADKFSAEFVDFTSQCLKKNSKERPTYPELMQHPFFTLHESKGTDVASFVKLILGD
# Sequence of Tyrosine-protein kinase receptor UFO (Homo sapiens) (P30530 whole entry): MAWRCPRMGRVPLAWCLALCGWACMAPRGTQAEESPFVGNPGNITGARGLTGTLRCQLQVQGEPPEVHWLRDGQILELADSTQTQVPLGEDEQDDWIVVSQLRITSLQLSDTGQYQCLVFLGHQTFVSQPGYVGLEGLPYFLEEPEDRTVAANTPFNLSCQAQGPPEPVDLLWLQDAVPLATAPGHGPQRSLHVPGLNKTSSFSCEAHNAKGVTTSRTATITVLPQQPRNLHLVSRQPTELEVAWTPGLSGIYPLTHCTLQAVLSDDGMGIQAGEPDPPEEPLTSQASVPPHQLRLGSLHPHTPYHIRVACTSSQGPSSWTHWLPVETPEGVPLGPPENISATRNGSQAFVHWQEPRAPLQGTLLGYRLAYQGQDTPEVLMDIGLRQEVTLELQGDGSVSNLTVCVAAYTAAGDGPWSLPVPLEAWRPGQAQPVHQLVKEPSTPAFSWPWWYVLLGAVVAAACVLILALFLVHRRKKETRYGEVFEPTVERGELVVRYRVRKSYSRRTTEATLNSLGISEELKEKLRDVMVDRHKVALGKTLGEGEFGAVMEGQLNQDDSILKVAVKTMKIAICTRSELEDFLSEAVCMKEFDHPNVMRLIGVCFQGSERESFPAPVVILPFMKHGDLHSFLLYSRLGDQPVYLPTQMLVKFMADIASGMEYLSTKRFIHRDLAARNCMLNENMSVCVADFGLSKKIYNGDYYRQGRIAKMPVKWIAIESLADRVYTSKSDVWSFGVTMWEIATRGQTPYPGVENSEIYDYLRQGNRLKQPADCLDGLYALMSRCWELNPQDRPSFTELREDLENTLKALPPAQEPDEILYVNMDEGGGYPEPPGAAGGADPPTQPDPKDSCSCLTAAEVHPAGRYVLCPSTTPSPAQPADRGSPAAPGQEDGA
# Sequence of MAP kinase-activated protein kinase 2 (Homo sapiens) (P49137 whole entry, looked up): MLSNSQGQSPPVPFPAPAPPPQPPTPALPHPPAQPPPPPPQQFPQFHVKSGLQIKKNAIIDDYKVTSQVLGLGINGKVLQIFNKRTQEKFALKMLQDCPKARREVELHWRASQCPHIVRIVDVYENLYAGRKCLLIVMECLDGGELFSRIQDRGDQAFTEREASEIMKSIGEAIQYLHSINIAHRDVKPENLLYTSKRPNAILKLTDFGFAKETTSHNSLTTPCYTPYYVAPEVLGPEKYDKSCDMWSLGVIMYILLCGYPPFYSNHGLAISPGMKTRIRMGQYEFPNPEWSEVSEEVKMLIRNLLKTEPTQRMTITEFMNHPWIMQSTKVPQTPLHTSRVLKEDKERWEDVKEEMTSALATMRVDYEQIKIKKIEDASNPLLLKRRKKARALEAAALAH
# Sequence of Serine/threonine-protein kinase 38-like (Homo sapiens) (Q9Y2H1 2-464 limits assumed): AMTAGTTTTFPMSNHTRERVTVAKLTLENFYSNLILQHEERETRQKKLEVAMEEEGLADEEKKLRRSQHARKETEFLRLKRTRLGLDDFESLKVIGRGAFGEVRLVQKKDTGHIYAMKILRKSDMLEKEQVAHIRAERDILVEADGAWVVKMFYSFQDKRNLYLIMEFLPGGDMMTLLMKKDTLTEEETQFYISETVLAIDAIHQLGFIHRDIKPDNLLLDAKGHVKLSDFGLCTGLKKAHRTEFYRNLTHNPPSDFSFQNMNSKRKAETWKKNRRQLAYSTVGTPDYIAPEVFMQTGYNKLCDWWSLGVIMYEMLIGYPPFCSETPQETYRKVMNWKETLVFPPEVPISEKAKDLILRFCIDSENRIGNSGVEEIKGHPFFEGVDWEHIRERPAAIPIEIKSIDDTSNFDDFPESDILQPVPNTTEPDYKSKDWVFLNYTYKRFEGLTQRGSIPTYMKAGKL
# Sequence of Tyrosine-protein kinase TXK (Homo sapiens) (P42681 whole entry): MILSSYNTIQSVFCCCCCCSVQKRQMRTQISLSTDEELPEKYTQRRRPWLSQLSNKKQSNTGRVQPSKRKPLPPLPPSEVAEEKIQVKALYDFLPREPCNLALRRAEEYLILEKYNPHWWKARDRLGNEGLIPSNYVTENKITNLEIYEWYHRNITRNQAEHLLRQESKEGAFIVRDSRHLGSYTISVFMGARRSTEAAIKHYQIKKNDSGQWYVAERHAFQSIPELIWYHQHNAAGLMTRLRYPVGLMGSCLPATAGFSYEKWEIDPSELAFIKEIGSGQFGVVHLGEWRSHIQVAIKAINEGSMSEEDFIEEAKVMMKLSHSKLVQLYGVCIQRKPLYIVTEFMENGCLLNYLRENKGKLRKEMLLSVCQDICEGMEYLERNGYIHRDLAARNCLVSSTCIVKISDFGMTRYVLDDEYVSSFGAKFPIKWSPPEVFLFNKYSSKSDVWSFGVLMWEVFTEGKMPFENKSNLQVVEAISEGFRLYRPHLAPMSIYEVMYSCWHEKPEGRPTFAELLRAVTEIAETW
smiles,measurement,setting,value
OCCOCc1cn(CCNc2nonc2/C(=N/O)Nc2ccc(F)c(Br)c2)nn1,inhibition,[1],inactive
same,inhibition,[2],inactive
same,fraction unbound,[3],0.0672
same,inhibition,[4],inactive
same,inhibition,[5],inactive
same,inhibition,[6],inactive
same,inhibition,[7],inactive
same,inhibition,[8],inactive
same,inhibition,[9],inactive
same,inhibition,[10],inactive
same,inhibition,[11],inactive
same,inhibition,[12],inactive
same,inhibition,[13],inactive
same,clearance,[14],27.5 mL/min/kg
same,inhibition,[15],inactive
same,inhibition,[16],inactive
same,fraction unbound,[17],0.0763
same,inhibition,[18],inactive
same,inhibition,[19],inactive
same,Activity,[20],7.31%
same,inhibition,[21],inactive
same,inhibition,[22],inactive
same,fraction unbound,[23],0.0968
same,fraction unbound,[24],0.0498
same,inhibition,[25],inactive
same,inhibition,[26],inactive
same,inhibition,[27],inactive
same,inhibition,[28],inactive
same,inhibition,[29],inactive
same,inhibition,[30],inactive
same,inhibition,[31],inactive
same,inhibition,[32],inactive
same,inhibition,[33],inactive
same,inhibition,[34],inactive
same,inhibition,[35],inactive
same,inhibition,[36],inactive
same,inhibition,[37],inactive
same,inhibition,[38],inactive
same,inhibition,[39],inactive
same,inhibition,[40],inactive
same,inhibition,[41],inactive
same,inhibition,[42],inactive
same,Activity,[43],Non-Toxic
same,inhibition,[44],inactive
same,inhibition,[45],inactive
